Where “and” joins values, the source holds several entries; their conditions need not be identical. Equal entries are not always repeated. Toxic doses and inconclusive results are not listed. Rule as the data show it: active = T/C of 150% or more; inactive = T/C below 125%.
System: L1210 leukemia ip in BDF1 mice, survival T/C
Test: NCI In Vivo Anticancer Drug Screen. Data for tumor model L1210 Leukemia (intraperitoneal) in B6D2F1 (BDF1) mice
Details: endpoint: mean survival time, higher = longer survival
In short: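 Mice bearing the transplanted tumor received compound or vehicle. Survival of the treated group was divided by that of the vehicle-treated control group to give the ratio.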

[1] = dose: 100.0 mg/kg/injection, schedule: Q04DX003 (ip), vehicle: saline with Tween-80
[2] = dose: 200.0 mg/kg/injection, schedule: Q04DX003 (ip), vehicle: saline with Tween-80
[3] = dose: 100.0 mg/kg/injection, schedule: Q04DX003 (ip), vehicle: Klucel (hydroxypropylcellulose) (HPC)
[4] = dose: 200.0 mg/kg/injection, schedule: Q04DX003 (ip), vehicle: Klucel (hydroxypropylcellulose) (HPC)
[5] = dose: 400.0 mg/kg/injection, schedule: Q04DX003 (ip), vehicle: Klucel (hydroxypropylcellulose) (HPC)
[6] = dose: 100.0 mg/kg/injection, schedule: Q04DX002 (ip), vehicle: Klucel (hydroxypropylcellulose) (HPC)
[7] = dose: 200.0 mg/kg/injection, schedule: Q04DX002 (ip), vehicle: Klucel (hydroxypropylcellulose) (HPC)
[8] = dose: 400.0 mg/kg/injection, schedule: Q04DX002 (ip), vehicle: Klucel (hydroxypropylcellulose) (HPC)
[9] = dose: 100.0 mg/kg/injection, schedule: Q01DX001 (ip), vehicle: saline
[10] = dose: 200.0 mg/kg/injection, schedule: Q01DX001 (ip), vehicle: saline
[11] = dose: 400.0 mg/kg/injection, schedule: Q01DX001 (ip), vehicle: saline
[12] = dose: 50.0 mg/kg/injection, schedule: Q01DX001 (ip), vehicle: saline

Measured: T/C

FC(F)(F)c1nc(=S)c2cn[nH]c2[nH]1
inactive: dose: 44.0 mg/kg/injection, schedule: Q01DX Z (ip), vehicle: methylcellulose (MC) 100 % of control | dose: 66.0 mg/kg/injection, schedule: Q01DX Z (ip), vehicle: methylcellulose (MC) 91 % of control | dose: 100.0 mg/kg/injection, schedule: Q01DX Z (ip), vehicle: methylcellulose (MC) 95 % of control

O=C(N/N=C/c1ccc2c(c1)OCO2)C(O)(c1ccccc1)c1ccccc1
inactive: dose: 100.0 mg/kg/injection, schedule: Q01DX001 (ip), vehicle: carboxymethylcellulose (CMC) 106 % of control | dose: 200.0 mg/kg/injection, schedule: Q01DX001 (ip), vehicle: carboxymethylcellulose (CMC) 95 % of control | dose: 400.0 mg/kg/injection, schedule: Q01DX001 (ip), vehicle: carboxymethylcellulose (CMC) 103 % of control

Nc1cccc(CCc2nc(N)nc(N)c2-c2ccc(Cl)cc2)c1
inactive: dose: 100.0 mg/kg/injection, schedule: Q01DX001 (ip), vehicle: saline with Tween-80 97 % of control | dose: 200.0 mg/kg/injection, schedule: Q01DX001 (ip), vehicle: saline with Tween-80 95 % of control | dose: 400.0 mg/kg/injection, schedule: Q01DX001 (ip), vehicle: saline with Tween-80 101 % of control

CC1(C(Cl)(Cl)Cl)C=CC(=NO)C=C1 (configuration not stated)
inactive: [1] 110 % of control | [2] 101 % of control

O=S(=O)(Nc1ccccn1)c1ccc(N(CCCl)CCCl)cc1
inactive: dose: 100.0 mg/kg/injection, schedule: Q01DX001 (ip), vehicle: other 95 % of control | dose: 200.0 mg/kg/injection, schedule: Q01DX001 (ip), vehicle: other 103 % of control | dose: 400.0 mg/kg/injection, schedule: Q01DX001 (ip), vehicle: other 106 % of control

CCCCC(=O)C(OC)OC
inactive: dose: 100.0 mg/kg/injection, schedule: Q01DX009 (ip), vehicle: saline with Tween-80 119 % of control | dose: 200.0 mg/kg/injection, schedule: Q01DX009 (ip), vehicle: saline with Tween-80 95 % of control | dose: 400.0 mg/kg/injection, schedule: Q01DX009 (ip), vehicle: saline with Tween-80 92 % of control

NC(=S)c1cccnc1
inactive: dose: 50.0 mg/kg/injection, schedule: Q01DX003 (ip), vehicle: Klucel (hydroxypropylcellulose) (HPC) 94 % of control | dose: 100.0 mg/kg/injection, schedule: Q01DX003 (ip), vehicle: Klucel (hydroxypropylcellulose) (HPC) 94 % of control | [3] 109 % of control | dose: 200.0 mg/kg/injection, schedule: Q01DX003 (ip), vehicle: Klucel (hydroxypropylcellulose) (HPC) 97 % of control | [4] 111 % of control | [5] 109 % of control

S=C(NCc1ccccc1)NCc1ccccc1
inactive: [6] 94 % of control and 87 % of control | [7] 87 % of control | [8] 90 % of control

CCCCCCCCC(=O)Cl
inactive: dose: 100.0 mg/kg/injection, schedule: Q04DX002 (ip), vehicle: saline 100 % of control | dose: 200.0 mg/kg/injection, schedule: Q04DX002 (ip), vehicle: saline 100 % of control | dose: 400.0 mg/kg/injection, schedule: Q04DX002 (ip), vehicle: saline 103 % of control

OC1CC(c2ccccc2)C1(c1ccccc1)c1ccccc1 (configuration not stated)
inactive: dose: 75.0 mg/kg/injection, schedule: Q01DX001 (ip), vehicle: other 104 % of control | dose: 150.0 mg/kg/injection, schedule: Q01DX001 (ip), vehicle: other 102 % of control | dose: 300.0 mg/kg/injection, schedule: Q01DX001 (ip), vehicle: other 94 % of control

COc1ccc(COC(=O)Oc2ccc(C#N)cc2)cc1OC
inactive: [1] 106 % of control | [2] 96 % of control | dose: 400.0 mg/kg/injection, schedule: Q04DX003 (ip), vehicle: saline with Tween-80 93 % of control

O=S(=O)(CCCCl)Cc1ccccc1
inactive: dose: 100.0 mg/kg/injection, schedule: Q01DX009 (ip), vehicle: other 100 % of control | dose: 100.0 mg/kg/injection, schedule: Q04DX003 (ip), vehicle: other 110 % of control | dose: 200.0 mg/kg/injection, schedule: Q01DX009 (ip), vehicle: other 98 % of control | dose: 200.0 mg/kg/injection, schedule: Q04DX003 (ip), vehicle: other 101 % of control | dose: 400.0 mg/kg/injection, schedule: Q01DX009 (ip), vehicle: other 102 % of control | dose: 400.0 mg/kg/injection, schedule: Q04DX003 (ip), vehicle: other 107 % of control

CCCCCCCCCCCCCCCCCCC1=NCCN1
inactive: dose: 2.34 mg/kg/injection, schedule: Q01DX009 (ip), vehicle: saline 101 % of control | dose: 4.68 mg/kg/injection, schedule: Q01DX009 (ip), vehicle: saline 96 % of control | dose: 9.37 mg/kg/injection, schedule: Q01DX009 (ip), vehicle: saline 86 % of control | dose: 18.75 mg/kg/injection, schedule: Q04DX003 (ip), vehicle: saline 90 % of control | dose: 75.0 mg/kg/injection, schedule: Q01DX001 (ip), vehicle: acetone 97 % of control

O=C1CCCC23C4CCCC4C12C1CCCC13 (configuration not stated)
inactive: dose: 100.0 mg/kg/injection, schedule: Q04DX002 (ip), vehicle: gum acacia 100 % of control | dose: 200.0 mg/kg/injection, schedule: Q04DX002 (ip), vehicle: gum acacia 97 % of control | dose: 400.0 mg/kg/injection, schedule: Q04DX002 (ip), vehicle: gum acacia 100 % of control

N#Cc1cn(C2OC(CO)C(O)C2O)c2ncnc([Se]Cc3ccc([N+](=O)[O-])cc3)c12 (configuration not stated)
inactive: dose: 3.12 mg/kg/injection, schedule: Q01DX005 (ip), vehicle: saline 109 % of control | dose: 6.25 mg/kg/injection, schedule: Q01DX005 (ip), vehicle: saline 106 % of control | dose: 12.5 mg/kg/injection, schedule: Q01DX005 (ip), vehicle: saline 102 % of control

N#CCc1cc(Cl)ccc1OCC(=O)O
inactive: [6] 95 % of control | [7] 103 % of control | [8] 100 % of control

Nc1ccc(C(=O)NCCCC(=O)O)cc1
inactive: [9] 108 % of control | [10] 103 % of control | [11] 95 % of control

CC(C)C(=O)[O][Pb]([CH3])([CH3])[CH3]
inactive: dose: 12.5 mg/kg/injection, schedule: Q04DX002 (ip), vehicle: saline 90 % of control

O=C(NC1CCCCC1)OC/C=C\c1ccccc1
inactive: dose: 100.0 mg/kg/injection, schedule: Q01DX009 (ip), vehicle: Klucel (hydroxypropylcellulose) (HPC) 101 % of control | [3] 101 % of control | dose: 200.0 mg/kg/injection, schedule: Q01DX009 (ip), vehicle: Klucel (hydroxypropylcellulose) (HPC) 98 % of control | [4] 96 % of control | dose: 400.0 mg/kg/injection, schedule: Q01DX009 (ip), vehicle: Klucel (hydroxypropylcellulose) (HPC) 109 % of control | [5] 102 % of control

CCOC(=O)N1N=C([P+](c2ccccc2)(c2ccccc2)c2ccccc2)CC1(c1ccccc1)c1ccccc1
inactive: dose: 25.0 mg/kg/injection, schedule: Q01DX001 (ip), vehicle: saline 98 % of control | [12] 104 % of control | [9] 104 % of control

COc1ccc([N+](=O)[O-])cc1[I+]c1cc([N+](=O)[O-])ccc1OC
inactive: [12] 111 % of control | [9] 90 % of control | [10] 96 % of control | [11] 90 % of control

— PubChem BioAssay AID248 (DTP/NCI, 2004)
